Experimental findings from US20110224136A1, “INHIBITORS OF DIACYLGLYCEROL ACYLTRANSFERASE” (priority 2008, published 2011) are described below.

For the assay, the target named is T1, human DGAT1 enzyme (Homo sapiens, UniProt O75907).
T1 construct: made in house; host or cells: Sf9 insect cells (microsomes)
T1 sequence (O75907 1-488): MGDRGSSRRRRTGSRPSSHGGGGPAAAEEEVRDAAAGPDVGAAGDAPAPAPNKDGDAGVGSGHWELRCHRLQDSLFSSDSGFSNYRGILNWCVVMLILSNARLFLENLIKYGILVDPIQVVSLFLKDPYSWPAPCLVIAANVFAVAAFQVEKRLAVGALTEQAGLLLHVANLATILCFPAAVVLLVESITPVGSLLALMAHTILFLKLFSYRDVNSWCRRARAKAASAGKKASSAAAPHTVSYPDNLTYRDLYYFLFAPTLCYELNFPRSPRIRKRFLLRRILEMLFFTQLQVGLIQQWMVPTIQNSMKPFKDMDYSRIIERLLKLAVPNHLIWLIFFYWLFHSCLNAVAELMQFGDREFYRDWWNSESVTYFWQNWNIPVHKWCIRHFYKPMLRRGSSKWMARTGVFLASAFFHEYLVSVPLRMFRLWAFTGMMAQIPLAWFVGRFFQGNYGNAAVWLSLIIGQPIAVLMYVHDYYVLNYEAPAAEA
Put plainly: in vitro DGAT1 inhibition assay (microsomes, [14C]-palmitoyl-CoA, scintillation proximity). The assay is classed as biochemical. The following applies: human DGAT1 expressed in Sf9 insect cell microsomes; 2 hours at room temperature; read-out: hDGAT IC50. The procedure:
A useful assay to determine the DGAT inhibitory activity of the inventive compounds is described below:
The in vitro assay to identify DGAT1 inhibitors uses human DGAT1 enzyme expressed in Sf9 insect cells prepared as microsomes. The reaction is initiated by the addition of the combined substrates 1,2-dioleoyl-sn-glycerol and [^14C]-palmitoyl-CoA and incubated with test compounds and microsomal membranes for 2 hours at room temperature. The assay is stopped by adding 0.5 mg wheat germ agglutinin beads in assay buffer with 1% Brij-35 and 1% 3-cholamidopropyldimethyl-ammonio-1-propane sulfonate. Plates are sealed with TopSeal and incubated for 18 hours to allow the radioactive triglyceride product to come into proximity with the bead. Plates are read on a TopCount instrument.
Percent inhibition was calculated as the percent of (test compound inhibition minus non-specific binding) relative to (total binding minus non-specific binding). IC50 values were determined by curve fitting the data to a Sigmoidal dose-response in GraphPad Prism utilizing the following equation:
Y=A+(B−A)/(1+10̂((Log IC50−X))),
where A and B are the bottom and top of the curve (highest and lowest inhibition), respectively, and X is the logarithm of concentration.
A general note: In a scintillation proximity assay essentially only radioactivity close to the scintillant gives light.
Usually IC50 stands for the concentration that gives 50% inhibition. Consider `O=C(Nc1ccc(N[C@H]2CCN(C(=O)Nc3ccccc3F)C2)nc1)c1oc(N2CCC(c3ccccc3)CC2)nc1C(F)(F)F` [Compound 257, (S)—N-(6-(1-(2-fluorophenylcarbamoyl)pyrrolidin-3-ylamino)pyridin-3-yl)-2-(4-phenylpiperidin-1-yl)-4-(trifluoromethyl)oxazole-5-carboxamide], for which the IC50 lay within 101 to 500 nM.
The value for `O=C(O)C[C@H]1CC[C@H](c2ccc(NC(=O)c3oc(N4CCC(c5ccccc5)CC4)nc3C(F)(F)F)cc2)CC1` [Compound 216, 2-((1r,4r)-4-(4-(2-(4-phenylpiperidin-1-yl)-4-(trifluoromethyl)oxazole-5-carboxamido)phenyl)cyclohexyl)acetic acid] was 101 to 500 nM; that for `CC1CCCN(c2nc(C(F)(F)F)c(C(=O)Nc3ccc(-c4ccc(C(=O)NCCC(=O)O)cc4)cc3)o2)C1` (centres unmarked) [Compound 328, 3-(4′-(2-(3-methylpiperidin-1-yl)-4-(trifluoromethyl)oxazole-5-carboxamido)biphenyl-4-ylcarboxamido)propanoic acid] was 101 to 500 nM.
With `Cc1ccccc1NC(=O)c1ccc(-c2ccc(NC(=O)c3oc(N4CCCC(C)C4)nc3C(F)(F)F)nc2)cc1` (centres unmarked) [Compound 227, 2-(3-methylpiperidin-1-yl)-N-(5-(4-(o-tolylcarbamoyl)phenyl)pyridin-2-yl)-4-(trifluoromethyl)oxazole-5-carboxamide] the figure was 11 to 100 nM; with `O=C(Nc1ccc(N2CCN(C(=O)Nc3ccccc3F)CC2)nc1)c1oc(N2CCC(c3ccc(Cl)cc3)CC2)nc1C(F)(F)F` [Compound 273, 2-(4-(4-chlorophenyl)piperidin-1-yl)-N-(6-(4-(2-fluorophenylcarbamoyl)piperazin-1-yl)pyridin-3-yl)-4-(trifluoromethyl)oxazole-5-carboxamide], 11 to 100 nM; with `O=C(CN1CCN(c2ccc(NC(=O)c3oc(N4CCC(c5ccccc5)CC4)nc3C(F)(F)F)cn2)CC1)c1ccccc1F` [Compound 289, N-(6-(4-(2-(2-fluorophenyl)-2-oxoethyl)piperazin-1-yl)pyridin-3-yl)-2-(4-phenylpiperidin-1-yl)-4-(trifluoromethyl)oxazole-5-carboxamide], 101 to 500 nM.
In the case of `Cc1ccccc1NC(=O)c1ccc(-c2ccc(NC(=O)c3sc(CN(C)c4ccccc4)nc3C(F)(F)F)nc2)cc1` [Compound 250, 2-((methyl(phenyl)amino)methyl)-N-(5-(4-(o-tolylcarbamoyl)phenyl)pyridin-2-yl)-4-(trifluoromethyl)thiazole-5-carboxamide], the IC50 lay in the range of 101 to 500 nM.
For the compound `CC1CCCN(c2nc(C(F)(F)F)c(C(=O)Nc3ccc(N4CCN(C(=O)Nc5ccccc5F)CC4)cn3)o2)C1` (centres unmarked) [Compound 236, N-(5-(4-(2-fluorophenylcarbamoyl)piperazin-1-yl)pyridin-2-yl)-2-(3-methylpiperidin-1-yl)-4-(trifluoromethyl)oxazole-5-carboxamide], the IC50 lay in the range of 11 to 100 nM.
Regarding `O=C(Nc1ccc(N2CCN(C(=O)Nc3ccccc3F)CC2)nc1)c1oc(N2CCC(c3cccc(F)c3)C2)nc1C(F)(F)F` (centres unmarked) [Compound 279, 2-(3-(3-fluorophenyl)pyrrolidin-1-yl)-N-(6-(4-(2-fluorophenylcarbamoyl)piperazin-1-yl)pyridin-3-yl)-4-(trifluoromethyl)oxazole-5-carboxamide], the IC50 fell in the range of 11 to 100 nM.
For `O=C(Nc1cnc(N2CCN(C(=O)Nc3ccccc3F)CC2)nc1)c1oc(N2CCC(c3ccccc3)CC2)nc1C(F)(F)F` [Compound 327, N-(2-(4-(2-fluorophenylcarbamoyl)piperazin-1-yl)pyrimidin-5-yl)-2-(4-phenylpiperidin-1-yl)-4-(trifluoromethyl)oxazole-5-carboxamide], the half-maximal inhibitory concentration (IC50) was in the range of 101 to 500 nM.
On to `CC1CCCN(c2nc(C(F)(F)F)c(C(=O)Nc3ccc(-c4ccc(C(=O)O)nc4)cc3)o2)C1` (centres unmarked) [Compound 229, 5-(4-(2-(3-methylpiperidin-1-yl)-4-(trifluoromethyl)oxazole-5-carboxamido)phenyl)picolinic acid], for which the IC50 lay in the range of 101 to 500 nM.
The value for `CC1CCCN(c2nc(C(F)(F)F)c(C(=O)Nc3ccc(-c4ccc(C(=O)N5CCC(C(=O)O)CC5)cn4)cc3)o2)C1` (centres unmarked) [Compound 251, 1-(6-(4-(2-(3-methylpiperidin-1-yl)-4-(trifluoromethyl)oxazole-5-carboxamido)phenyl)nicotinoyl)piperidine-4-carboxylic acid] was 101 to 500 nM; that for `C[C@@H]1CN(c2ccc(NC(=O)c3oc(N4CCC(c5ccccc5)CC4)nc3C(F)(F)F)cn2)CCN1C(=O)Nc1ccccc1F` [Compound 266] was 11 to 100 nM; that for `O=C(Nc1ccc(N2CCN(C(=O)Nc3ccccc3F)CC2)nc1)c1sc(CSc2ccccc2)nc1C(F)(F)F` [Compound 253, N-(6-(4-(2-fluorophenylcarbamoyl)piperazin-1-yl)pyridin-3-yl)-2-(phenylthiomethyl)-4-(trifluoromethyl)thiazole-5-carboxamide] was 11 to 100 nM.
With `CN(Cc1nc(C(F)(F)F)c(C(=O)Nc2ccc(N3CCN(C(=O)Nc4ccccc4F)CC3)nc2)s1)c1ccccc1` [Compound 247, N-(6-(4-(2-fluorophenylcarbamoyl)piperazin-1-yl)pyridin-3-yl)-2-((methyl(phenyl)amino)methyl)-4-(trifluoromethyl)thiazole-5-carboxamide] the figure was 101 to 500 nM; with `O=C(O)c1ccccc1NC(=O)N1CCN(c2ccc(NC(=O)c3oc(N4CCC(c5ccccc5)CC4)nc3C(F)(F)F)cn2)CC1` [Compound 292, 2-(4-(5-(2-(4-phenylpiperidin-1-yl)-4-(trifluoromethyl)oxazole-5-carboxamido)pyridin-2-yl)piperazine-1-carboxamido)benzoic acid], 11 to 100 nM.
With `O=C(Nc1ccc(N2CCN(C(=O)Nc3ccccc3F)CC2)nc1)c1sc(COc2ccccc2)nc1C(F)(F)F` [Compound 252, N-(6-(4-(2-fluorophenylcarbamoyl)piperazin-1-yl)pyridin-3-yl)-2-(phenoxymethyl)-4-(trifluoromethyl)thiazole-5-carboxamide], the IC50 is 101 to 500 nM.
